These results are taken from US20250017889A1, “INHIBITORS OF P1B-TYPE ATPASES” (THE CURATORS OF THE UNIVERSITY OF MISSOURI, priority 2021, published 2025).

Data set [1] relates to tyrosinase activity in B16 melanoma cells. Put plainly: Tyrosinase activity in wild type B16 melanoma cells (L-DOPA to DOPAchrome), proxy for ATP7A inhibition. Type of data set: cell-based. The text has this:
Tyrosinase is a cuproenzyme involved in melanogenesis that receives copper via ATP7A in the secretory pathway. […] Thus, reductions in tyrosinase activity in wild type B16 cells can be used as a proxy for inhibition of ATP7A. […]

The nature of data set [2]: Cytotoxicity in B16 cells by MTT and crystal violet assays. Type of data set: cell-based. The settings on record: mouse. The text has this:
This is consistent with lower affinity of MKV1 for ATP7A (FIG. 6E).

In data set [3] the test system is Cu^S cells complemented with ATP7A. Nature of the data set: Copper toxicity in Cu^S cells complemented with ATP7A. Type of data set: cell-based. To be noted: 10 μM, 50% cytotoxic copper concentration. The text has this:
8A illustrates a copper sensitive fibroblast cell line (Cu^S) generated by deleting genes encoding ATP7A, metallothionein-I (MT-I) and metallothionein-II (MT-II). Cu^S cells cannot be propagated in regular medium (DMEM) unless a copper chelator (BCS) is supplied to the medium.
Cu^S cell lines were derived that were complemented by either ATP7A, ATP7B or MT-II.

The target in a further data set is T1, human ATP7A (hATP7A) (Homo sapiens, UniProt Q04656).
T1 construct: expressed in transfected cells; host or cells: B16 melanoma ATP7A^KO cells (mouse), transient transfection
T1 sequence (Q04656 1-1500): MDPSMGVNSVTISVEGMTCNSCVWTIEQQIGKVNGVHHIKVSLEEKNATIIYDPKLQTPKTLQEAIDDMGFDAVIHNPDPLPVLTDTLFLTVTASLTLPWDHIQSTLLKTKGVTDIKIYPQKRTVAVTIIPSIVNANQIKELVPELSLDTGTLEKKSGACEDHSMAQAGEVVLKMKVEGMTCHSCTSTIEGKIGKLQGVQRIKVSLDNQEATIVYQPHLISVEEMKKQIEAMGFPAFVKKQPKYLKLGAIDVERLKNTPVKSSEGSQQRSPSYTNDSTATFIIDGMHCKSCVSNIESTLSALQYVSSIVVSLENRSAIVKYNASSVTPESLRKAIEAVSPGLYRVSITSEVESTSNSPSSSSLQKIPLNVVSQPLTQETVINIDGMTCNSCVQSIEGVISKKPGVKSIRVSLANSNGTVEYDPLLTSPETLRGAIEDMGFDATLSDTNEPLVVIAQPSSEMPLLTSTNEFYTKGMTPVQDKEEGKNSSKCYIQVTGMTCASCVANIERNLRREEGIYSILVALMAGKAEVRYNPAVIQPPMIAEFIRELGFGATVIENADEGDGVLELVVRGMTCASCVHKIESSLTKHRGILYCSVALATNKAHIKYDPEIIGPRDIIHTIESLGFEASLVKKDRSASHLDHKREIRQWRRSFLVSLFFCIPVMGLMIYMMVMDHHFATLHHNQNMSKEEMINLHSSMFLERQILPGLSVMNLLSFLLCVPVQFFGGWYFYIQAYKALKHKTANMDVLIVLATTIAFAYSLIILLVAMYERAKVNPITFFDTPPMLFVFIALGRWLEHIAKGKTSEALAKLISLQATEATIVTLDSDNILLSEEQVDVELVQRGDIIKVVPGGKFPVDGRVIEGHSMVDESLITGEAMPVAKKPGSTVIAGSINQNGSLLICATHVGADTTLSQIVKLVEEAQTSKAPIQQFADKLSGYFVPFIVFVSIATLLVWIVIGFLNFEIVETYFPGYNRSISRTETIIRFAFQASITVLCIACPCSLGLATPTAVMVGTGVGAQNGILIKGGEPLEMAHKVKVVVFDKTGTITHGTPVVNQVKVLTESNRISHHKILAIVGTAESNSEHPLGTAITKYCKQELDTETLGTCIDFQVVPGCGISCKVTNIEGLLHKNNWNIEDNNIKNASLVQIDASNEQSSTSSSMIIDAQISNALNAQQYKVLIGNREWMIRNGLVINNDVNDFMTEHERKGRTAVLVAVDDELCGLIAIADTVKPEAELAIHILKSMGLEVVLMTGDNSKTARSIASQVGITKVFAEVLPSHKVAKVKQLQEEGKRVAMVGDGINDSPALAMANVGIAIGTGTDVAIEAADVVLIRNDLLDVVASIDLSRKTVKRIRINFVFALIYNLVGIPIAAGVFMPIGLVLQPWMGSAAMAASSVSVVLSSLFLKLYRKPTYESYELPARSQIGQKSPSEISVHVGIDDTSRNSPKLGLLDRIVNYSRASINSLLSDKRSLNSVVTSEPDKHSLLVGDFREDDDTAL
Nature of the data set: Tyrosinase activation in B16 ATP7A^KO cells transfected with human ATP7A. Format: cell-based. The settings on record: 10 μM, 24 h, ATP7A^KO melanoma cells. The text has this: Prior studies have shown that exogenously expressed ATP7B can activate tyrosinase in cells lacking ATP7A. For these studies, a B16 melanoma cell model was used in which tyrosinase activity can be detected by in situ oxidation of L-DOPA to DOPAchrome (10A). As shown earlier, B16 cells deleted for the ATP7A gene (ATP7A^KO) completely lack tyrosinase activity (10B). […] Quantification of tyrosinase activity in these cells is shown (10G). Data represent mean±SEM; ****p<0.0001 of three independent replicates.

The next data set has as its system 4T1 mammary cancer cells. Nature of the data set: Orthotopic 4T1 mammary tumor growth and lung metastasis in mice. Type of data set: in vivo, BALB/c mice.
In data set [4] the test system is wild type S. aureus (CopA and CopB). Put plainly: Growth of wild type methicillin-resistant Staphylococcus aureus. Type of data set: cell-based. The protocol:
(§1) Methicillin-resistant Staphylococcus aureus (MRSA) is a human pathogen that expresses two Cu-transporting P1B-type ATPases, CopA and CopB, which are known to enhance the virulence of this bacterium. 19A illustrates CopA and CopB copper exporters at the plasma membrane of S. aureus. […] The growth of the ΔcopA/ΔcopB strain was inhibited by approximately 50% when copper alone (50 μM) was added to the culture medium.
(§2) Wild type MRSA expresses two copper-exporting P1B-type ATPases, CopA and CopB that are required for copper tolerance (FIG. 19A). […] The same experiment was performed using MRSA in which both CopA and CopB genes were deleted (ΔcopA/ΔcopB). Consistent with the known role of CopA and CopB in copper tolerance, the growth of the ΔcopA/ΔcopB strain was inhibited by approximately 50% when copper alone (50 μM) was added to the culture medium (FIG. 19C).

Data set [5] deals with ΔcopA/ΔcopB strain of S. aureus. Nature of the data set: Growth of copper-sensitive ΔcopA/ΔcopB mutant strain of S. aureus. Format: cell-based, Staphylococcus aureus. The settings on record: MKV3 with copper 50 μM. The protocol:
as §1, §2

[6] abbreviates: intravenous 50 mg/kg every Tuesday and Thursday for 3 weeks.
Where [7] appears, read: subcutaneous 50 mg/kg every Monday, Wednesday and Friday for 3 weeks.

For the compound `N#CC(C(=O)Nc1cccc(C(F)(F)F)c1)C(=S)Nc1ccccc1Cl` (stereo not shown) [MKV3], the “in situ tyrosinase activity” value in data set [1] (5 μM, 24 h, wild type B16 melanoma cells) was “loss of tyrosinase activity”. The compound further yielded an IC50 in data set [1] (Mus musculus, B16 cells) of 2.96 ± 0.007 µM. For the same compound, in data set [2], the CC50 is about 75 µM. In addition, the copper toxicity result in data set [3] was “enhanced copper toxicity”. At human ATP7A (hATP7A), the “activation of tyrosinase activity by ATP7A” value is on record as “prevented activation of tyrosinase activity”. Also, in the data set on 4T1 mammary cancer cells (setting [6]), the metastatic lung burden entry is “reduced” and the “weights of 4T1 primary tumors” value was “reduced”. For the same compound, in the data set on 4T1 mammary cancer cells (setting [7]), the lung metastasis result was “significantly reduced” and the primary tumor growth entry is “significantly reduced”. The “sensitivity of wild type S. aureus to silver” value in data set [4] is “increases the sensitivity”. In data set [4] (MKV3 0.5 μM alone), the “growth of wild type S. aureus” value is given as “not affected”. For the same compound, the “growth of wild type S. aureus” value in data set [4] (MKV3 0.5 μM and copper 50 μM in combination) was “significant inhibition of growth”. The “copper sensitivity in the ΔcopA/ΔcopB strain” value in data set [5] was “did not increase copper sensitivity”.
